Data set [1] is described as follows: Unbound plasma concentration in human KI mice of the CFA model. Format: in vivo. The conditions noted are these: female, human PTGES knock-in (humanized KI, transgenic) mice, mouse, read-out: Plasma concentration Cplasma-unbound. As for the experimental part:
At termination of the experiments (48 h after CFA, 1 h after dose), hind paw tissue is collected for analysis of PGE2 levels (ELISA, Cayman Chemical item no. 514531). […] Statistical analysis is performed with one-way analysis of variance, followed by Bonferroni's multiple comparison test vs. vehicle controls using the GraphPad PRISM software, *p<0.05, **p<0.01.

The target in data set [2] is human PTGES (Homo sapiens (Human), UniProt O14684). Kind of data set: Human PTGES biochemical enzyme inhibition assay (conversion of PGH2 to PGE2, TR-FRET). The method, boiled down: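 FLAG-tagged human PTGES from Hi-5 insect cells preincubated 15–20 min with compound in pH 7.2 phosphate buffer with 2.5 mM reduced glutathione; reaction started with 8 nM PGH2 final, stopped with SnCl2/KF.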
Sequence of human PTGES (O14684 whole entry): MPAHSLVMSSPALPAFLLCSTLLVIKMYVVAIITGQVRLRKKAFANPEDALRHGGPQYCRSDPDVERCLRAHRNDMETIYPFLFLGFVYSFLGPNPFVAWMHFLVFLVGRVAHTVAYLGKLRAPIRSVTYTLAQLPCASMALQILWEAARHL

The subject of data set [3] is CFA induced PGE2 release in the ipsilateral inflamed hind paw of human KI mice (expressing human PTGES). Briefly: PGE2 measurements in CFA inflammation model using humanized KI mice. To be noted: for % inhibition of PGE2 in vivo vs vehicle: p.o., single dose, hind paw 48 h after CFA, 1 h after dose. Format: in vivo. On the procedure:
PGE2 Measurements in CFA Inflammation Model Using Humanized KI Mice
Female transgenic mice expressing the human PTGES enzyme (Taconic, Xu et al. 2008) received intraplantar injection of complete Freund's adjuvant (CFA) (30 μl, 1 mg/ml, Sigma) into the left hind paw under isoflurane anesthesia. […] At termination of the experiments (48 h after CFA, 1 h after dose), hind paw tissue is collected for analysis of PGE2 levels (ELISA, Cayman Chemical item no. 514531). […] Statistical analysis is performed with one-way analysis of variance, followed by Bonferroni's multiple comparison test vs. vehicle controls using the GraphPad PRISM software, *p<0.05, **p<0.01.

In data set [4] the test system is CFA-induced pain behavior in WT mice. Briefly: CFA inflammation model with pain read out (dynamic weight bearing). Format: in vivo. The conditions noted are these: single oral dosing on day 2 post-CFA, example 17: 30, 100 mg/kg, example 44: 30, 75 mg/kg. On the procedure: Efficacy in CFA Inflammation Model with Pain Read Out
Wild type (WT) female c57bl/6 mice (Taconic) received intraplantar injection of complete Freund's adjuvant (CFA) (30 μl, 1 mg/ml, Sigma) into the left hind paw under isoflurane anesthesia. […] Spontaneous pain-related behavior in freely moving animals was assessed using the automated dynamic weight bearing device (DWB, Bioseb, France) according to published and validated protocols: Robinson I, Sargent B, Hatcher J P, Neurosci Lett. 2012 Aug. 30; 524(2):107-10. Use of dynamic weight bearing as a novel end-point for the assessment of Freund's Complete Adjuvant induced hypersensitivity in mice; Tétreault P, Dansereau M A, Doré-Savard L, Beaudet N, Sarret P. Physiol Behav. 2011 Sep. […] 2014 Jul. 30; 232:118-24. Use of dynamic weight bearing as a novel end-point for the assessment of abdominal pain in the LPS-induced peritonitis model in the rat. For behavioral testing, the animal was placed inside a Plexiglas chamber and allowed to move freely within the apparatus for a 5 min period, subsequently pain behavior is recorded for a test period of another 5 min.
Statistical analysis is performed with one-way analysis of variance, followed by Bonferroni's multiple comparison test vs. vehicle controls using the GraphPad PRISM software, *p<0.05, **p<0.01.

Where [5] appears, read: Enzymatic conversion of PGH2 to PGE2, read-out: Human PTGES IC50.
The mark [6] stands for this setting: human PTGES, as listed in Table 2, read-out: hu IC50 biochem.

The source of these data is patent US10172814B2, “Substituted pyridyl-cycloalkyl-carboxylic acids, compositions containing them and medical uses thereof” (BAYER PHARMA AKTIENGESELLSCHAFT, priority 2014, dated 2019).

The structures appear in SMILES notation. Where two headings read alike, the source gives them in different places.

In the case of `Cc1c(CCC(=O)O)cccc1NC(=O)C(c1ccc(-c2cncc(C(F)(F)F)c2)cc1)C1CCC1` (single isomer, unassigned; (-)) [Example 55, (−) 3-{3-[(Cyclobutyl{4-[5-(trifluoromethyl)pyridin-3-yl]phenyl}acetyl)amino]-2-methylphenyl}propanoic acid], the concentration at 1 h in data set [1] (in vivo, 1 mg/kg) is 34 nM; in data set [1] (in vivo, 3 mg/kg) it was 103 nM; in data set [1] (in vivo, 10 mg/kg), 322 nM. The IC50 amounted to 35.4 nM in data set [2] (setting [5]) and 27 nM in data set [2] (setting [6]). The “% inhibition of PGE2 in vivo vs vehicle” value stood at 84% in data set [3] (1 mg/kg), 93% in data set [3] (3 mg/kg) and 96% in data set [3] (10 mg/kg).

Regarding `Cc1c(CCC(=O)O)cccc1NC(=O)C(c1ccc(-c2cncc(Cl)c2)c(F)c1)C1CCCC1` (single isomer, unassigned; (-)) [Example 44, (−) 3-[3-({[4-(5-Chloropyridin-3-yl)-3-fluorophenyl](cyclopentyl)acetyl}amino)-2-methylphenyl]propanoic acid], the concentration at 1 h in data set [1] (plasma, oral, 1 mg/kg) came out at 15 nM; in data set [1] (plasma, oral, 3 mg/kg), 47 nM; in data set [1] (plasma, oral, 10 mg/kg), 173 nM. The “pain behavior as assessed by DWB after CFA-induced inflammation” value in data set [4] was “significantly and dose-dependently reduced pain behavior”. Moreover, the “% inhibition of PGE2 in vivo vs vehicle” value in data set [3] (1 mg/kg) is listed as 95%; in data set [3] (3 mg/kg), 65%; in data set [3] (10 mg/kg) it was 100%. In data set [3] (single oral dosing, hu KI mice), the “inhibition of CFA-induced PGE2 formation/release in the hind paw” value is “strong efficacy”.

In the case of `Cc1c(CCC(=O)O)cccc1NC(=O)[C@@H](c1ccc(-c2cncc(C(F)(F)F)c2)cc1)C1CCCC1` [Example 2, (−) (R) 3-{3-[(Cyclopentyl{4-[5-(trifluoromethyl)pyridin-3-yl]phenyl}acetyl)amino]-2-methylphenyl}propanoic acid], the concentration at 1 h was determined as 21 nM in data set [1] (plasma, oral, 1 mg/kg); 62 nM in data set [1] (plasma, oral, 3 mg/kg); 190 nM in data set [1] (plasma, oral, 10 mg/kg). The “% inhibition of PGE2 in vivo vs vehicle” value in data set [3] (1 mg/kg) was found to be 37%; in data set [3] (3 mg/kg) it was 75%; in data set [3] (10 mg/kg), 94%.

For `Cc1c(CCC(=O)O)cccc1NC(=O)C(c1ccc(-c2cncc(C(F)(F)F)c2)c(F)c1)C1CCCC1` (single isomer, unassigned; (-)) [Example 48, (−) 3-{3-[(Cyclopentyl{3-fluoro-4-[5-(trifluoromethyl)pyridin-3-yl]phenyl}acetyl)amino]-2-methylphenyl}propanoic acid], the concentration at 1 h came to 11 nM in data set [1] (in vivo, 1 mg/kg); 32 nM in data set [1] (in vivo, 3 mg/kg); 88 nM in data set [1] (in vivo, 10 mg/kg). The IC50 in data set [2] (setting [5]) was 14.2 nM; in data set [2] (setting [6]), 3 nM. Also, the results for the “% inhibition of PGE2 in vivo vs vehicle” value in data set [3] (1 mg/kg), in data set [3] (3 mg/kg) and in data set [3] (10 mg/kg) were 38%, 74% and 78%, respectively.

For the molecule `Cc1c(NC(=O)C(c2ccc(-c3cncc(Cl)c3)cc2)C2CCCC2)cccc1C(C)CC(=O)O` (single isomer, unassigned; stereoisomer 2) [Example 87, 3-[3-({[4-(5-Chloropyridin-3-yl)phenyl](cyclopentyl)acetyl}amino)-2-methylphenyl]butanoic acid, Stereoisomer 2], the concentration at 1 h in data set [1] (plasma, oral, 1 mg/kg) is 25 nM; in data set [1] (plasma, oral, 3 mg/kg) it was 75 nM; in data set [1] (plasma, oral, 10 mg/kg), 172 nM. Also, the “% inhibition of PGE2 in vivo vs vehicle” value in data set [3] (1 mg/kg) was 43%; in data set [3] (3 mg/kg), 65%; in data set [3] (10 mg/kg) it was 67%.

Turning to `Cc1c(CCC(=O)O)cccc1NC(=O)C(c1ccc(-c2cncc(CF)c2)cc1)C1CCCC1` (racemic) [Example 30, (R/S) 3-{3-[(Cyclopentyl{4-[5-(fluoromethyl)pyridin-3-yl]phenyl}acetyl)amino]-2-methylphenyl}propanoic acid], the IC50 in data set [2] (setting [5]) was 188 nM.

Consider `CCC(CC(=O)O)c1cccc(NC(=O)C(c2ccc(-c3cncc(C)c3)cc2)C2CCCC2)c1C` (racemic) [Example 104, (3R/S)-3-[3-({(2RS)-2-Cyclopentyl-2-[4-(5-methylpyridin-3-yl)phenyl]acetyl}amino)-2-methylphenyl]pentanoic acid], for which, in data set [2] (setting [5]), the 50% inhibitory concentration (IC50) was 95.1 nM.

`Cc1c(NC(=O)C(c2ccc(-c3cncc(Cl)c3)cc2)C2CCC2)cccc1C(C)CC(=O)O` (single isomer, unassigned; stereoisomer 3) [Example 138]: in data set [2] (setting [5]), the IC50 turned out to be 2040 nM.

On to `Cc1c(CCC(=O)O)cccc1NC(=O)C(c1ccc(-c2cncc(OC3CCOCC3)c2)cc1)C1CCCC1` (racemic) [Example 15, (R/S) 3-{3-[(Cyclopentyl{4-[5-(tetrahydro-2H-pyran-4-yloxy)pyridin-3-yl]phenyl}acetyl)amino]-2-methylphenyl}propanoic acid], for which the half-inhibitory concentration (IC50) in data set [2] (setting [5]) is 114 nM.

Turning to `Cc1c(CCC(=O)O)cccc1NC(=O)C(c1ccc(-c2cncc(CC(F)(F)F)c2)c(F)c1)C1CCCC1` (single isomer, unassigned; (-)) [Example 196, (−) 3-{3-[(cyclopentyl{3-fluoro-4-[5-(2,2,2-trifluoroethyl)pyridin-3-yl]phenyl}acetyl)amino]-2-methylphenyl}propanoic acid, Single Enantiomer], the half-inhibitory concentration (IC50) in data set [2] (setting [5]) was found to be 74.7 nM.

Consider `Cc1ncc(-c2ccc(C(C(=O)Nc3cccc(CCC(=O)O)c3C)C3CCC3)cc2)cc1F` (racemic) [Example 62, (R/S) 3-[3-({[4-(5-Fluoro-6-methylpyridin-3-yl)phenyl](cyclobutyl)acetyl}amino)-2-methylphenyl]propanoic acid], for which the 50% inhibitory concentration (IC50) in data set [2] (setting [5]) stood at 148 nM.

For `CCOc1cncc(-c2ccc(C(C(=O)Nc3cccc(C(C)CC(=O)O)c3C)C3CCCC3)cc2)c1` (mixture of isomers) [Example 90, (3R/S)-3-[3-({(2R/S)-2-Cyclopentyl-2-[4-(5-ethoxypyridin-3-yl)phenyl]acetyl}amino)-2-methylphenyl]butanoic acid], the half-maximal inhibitory concentration (IC50) in data set [2] (setting [5]) stood at 108 nM.
